Entries after “also recorded” stand apart in the source; their conditions may differ. Read-outs that look alike come from different tables or passages of the source.
Columns and labels:
[1] = system: NO production in LPS-induced BV-2 cells; assay: Inhibition of NO production in LPS-induced BV-2 cells (Griess method); format: cell-based, murine; conditions: for IC50: LPS (1 μg/ml)-induced BV-2 cells, 24 h, read-out: IC50, inhibitory effect against NO production
Protocol: In the presence or absence of LPS (1 μg/ml), murine BV-2 microglial cells were treated with compounds with different concentrations for 24 h. The same volume of Griess reagent was added to the supernatant of culture media. The Griess method was used to determine the NO levels under the absorbance at 540 nm measured using a microplate spectrophotometer (Thermo Scientifics, United States). Based on the established calibration curve of standard sodium nitrite solutions, the content of nitrite was calculated.

[2] = Cell viability / cytotoxicity, MTT method; format: cell-based, murine; conditions: mouse, BV-2 microglial cells, BV-2 cells
Protocol: (§1) Murine BV-2 microglial cells were obtained from the Cell Culture Center of Institute of Basic Medical Sciences, Chinese Academy of Medical Sciences, and the cells were cultured in Dulbecco’s modified Eagle’s medium (Gibco) together with 10% (v/v) fetal bovine serum (HyClone) within a 5% CO2 incubator at 37°C. The MTT method was utilized to detect the cytotoxicity of the compound to read the absorbance at 570 nm using a microplate spectrophotometer (Thermo Scientifics, United States).

[3] = system: BV-2 microglial cells; assay: Cell viability / cytotoxicity, MTT method; format: cell-based, murine; conditions: BV-2 cells
Protocol: as §1

[4] = system: iNOS; assay: iNOS mRNA level; format: cell-based
[5] = system: NF-κB p65; assay: Nuclear translocation of NF-κB p65 in LPS-stimulated BV-2 cells (immunofluorescence and Western blot); format: cell-based, murine; conditions: LPS (1 μg/ml)-stimulated BV-2 cells, 2 μM, 3 h, immunofluorescence and WB
Protocol: (§2) In 12-well plates, BV-2 cells were seeded to incubate with LPS (1 μg/ml) for 1 h. Each compound was incubated with BV-2 cells for 16 h. Phenylmethylsulfonyl fluoride-protease inhibitor cocktail as the cell extraction buffer was used to lyse cells. Nuclear and cytosolic extraction kits were applied for the collection of the cytosolic and nuclear extracts. Upon SDS-PAGE, proteins were purified and transferred to PVDF membranes (Millipore). After treatment with 5% (W/V) skim milk in TBST (Tris-buffered saline with 0.1% Tween 20) for 1 h, the membranes were maintained at 4°C overnight. The membrane was washed and then incubated with a secondary antibody at 20°C for 1 h. The target proteins were visualized under a chemiluminescence (ECL) detection system, and the relative optical densities were analyzed by Image Master™ 2D Elite software.
Prior to LPS induction, BV-2 cells were pretreated by the compound (2 μM) in DMSO. Cells were seeded in glass coverslips, which were then treated with cold 4% paraformaldehyde and 0.2% Triton X-100 (in PBS). […] Images were detected using a fluorescence microscope (OLYMPUS IX83).
FIGURE 8 Effect of analog 18 on the nuclear translocation of NF-κB p65 in LPS-stimulated BV-2 cells. […] (B) BV-2 cells were stimulated with LPS (1 μg/ml) in the absence or presence of 18 (2 μM) for 3 h, and NF-kB p65 levels in the nucleus and cytoplasm were determined by Western blot. […]

[6] = system: iNOS; assay: Western blot of iNOS protein expression in LPS-induced BV-2 cells; format: cell-based, murine; conditions: LPS (1 μg/mL)-induced BV-2 cells, different concentrations, 24 h
Protocol: as §2
(§3) FIGURE 6 Analog 18 inhibited the expression of iNOS and COX-2 in LPS-induced BV-2 cells. Cells were stimulated by 1 μg/mL LPS with or without 18 for 24 h. (A) The protein expressions o f iNOS treated by different concentrations of 18 were determined by Western blot assay, (B) the expressions of COX-2 t reated by different concentrations of 18 were determined by Western blot assay. […]

[7] = system: phosphorylation of JNK, ERK and p38 (MAPK signaling pathway); assay: MAPK phosphorylation in LPS-stimulated BV-2 cells; format: cell-based, murine; conditions: LPS-stimulated BV-2 microglial cells
Protocol: as §2

[8] = system: COX-2; assay: Western blot of COX-2 protein expression in LPS-induced BV-2 cells; format: cell-based, murine; conditions: LPS (1 μg/mL)-induced BV-2 cells, different concentrations, 24 h
Protocol: as §2, §3

[9] = system: COX-2; assay: COX-2 mRNA level; format: cell-based

IC50 ([1]; Mus musculus, BV-2, 24 h) [µM] | Molecule | CC50 [2] [µM] | further results
> 10 | C=C(C)C1C(O)CC(C)C12CC(O)C(C)=CC2O (centres unmarked) [Compound 8, Bilaiaeacorenol H] | > 100 | –
5.3 ± 1.1 | CC1=CCC2(CC1O)C(C)CC(O)C2C(C)(O)CO (centres unmarked) [Compound 3, Bilaiaeacorenol C] | > 100 | –
> 10 | C=C(CO)C1C(OC(C)=O)CC(C)C12CC=C(C)C(O)C2 (centres unmarked) [Compound 10, Bilaiaeacorenol J] | > 100 | –
7.6 ± 1.2 | CC1=CCC2(CC1O)C(C)CC(O)C2C(C)CO (centres unmarked) [Compound 4, Bilaiaeacorenol D] | > 100 | –

Continued, molecule first:

Molecule | IC50 ([1]; Mus musculus, BV-2, 24 h) [µM] | CC50 [2] [µM] | further results
CC1CC(O)C2C(C)(O)CC3CC12CC=C3CO (centres unmarked) [Compound 2, Bilaiaeacorenol B] | 6.1 ± 2.3 | > 100 | melting point: 108 to 110 °C
C=C(C)C1C(O)CC(C)C12CC=C(C)C(O)C2 (centres unmarked) [Compound 6, Bilaiaeacorenol F] | – | – | IC50 [1]: > 10 µM; CC50 [3]: > 100 µM
adametacorenol B [Compound 20] | – | – | IC50 [1]: > 10 µM; CC50 [3]: > 100 µM
CC1=CCC23CC1OC(C)(CO)C2C(O)CC3C (centres unmarked) [Compound 1, Bilaiaeacorenol A] | > 10 | > 100 | –
C=C(C)C1C(O)CC(C)C12CC=C(C)C(O)C2 (centres unmarked) [Compound 5, Bilaiaeacorenol E] | > 10 | > 100 | –
adametacorenol A [Compound 19] | – | – | IC50 [1]: > 10 µM; CC50 [3]: > 100 µM
C=C(C)C1C(OC(C)=O)CC(C)C12CC(O)C(C)=CC2O (centres unmarked) [Compound 9, Bilaiaeacorenol I] | – | > 100 | IC50 ([1]; Mus musculus): 3.5 ± 0.1 µM
C=C(C)C1C(O)CC(C)C12CCC(CO)C(O)C2 (centres unmarked) [Compound 12, Bilaiaeacorenol L] | > 10 | > 100 | –
C=C(C)C1C(O)CC(C)C12CC(=O)C(C)C(O)C2 (centres unmarked) [Compound 17, Bilaiaeacorenol Q] | > 10 | > 100 | –
C=C(C)C1C(O)CC(C)C12CCC(CO)C(O)C2 (centres unmarked) [Compound 16, Bilaiaeacorenol P] | – | – | IC50 [1]: 7.5 ± 0.2 µM; CC50 [3]: > 100 µM
C=C(C)C1C(O)CC(C)C12CC=C(CO)C(O)C2 (centres unmarked) [Compound 7, Bilaiaeacorenol G] | > 10 | > 100 | –
C=C(C)C1C(O)CC(C)C12CCC(C(=O)O)C(O)C2 (centres unmarked) [Compound 18, Bilaiaeacorenol R] | 0.5 ± 1.2 | > 100 | iNOS mRNA level [4]: marked reductions; p65 level in the nucleus [5]: significantly downregulated; iNOS level (protein) [6]: decreased; phosphorylation of JNK, ERK and p38 [7]: slightly affected; also recorded: Ineffective; reduction against NO production ([1]; LPS-induced BV-2 cells, dose-dependent manner): efficient reduction; COX-2 level (protein) [8]: decreased; COX-2 mRNA level [9]: marked reductions
C=C(C)C1C(O)CC(C)C12C=CC(C)(O)C(O)C2 (centres unmarked) [Compound 11, Bilaiaeacorenol K] | 8.7 ± 2.1 | > 100 | –
[H]/N=C(/NC)NCCC[C@H](N)C(=O)O [L-NMMA, NG-monomethyl-L-arginine, reference compound] | 6.8 ± 4.2 | > 100 | –
C=C(C)C1C(O)CC(C)C12CCC(CO)C(O)C2 (centres unmarked) [Compound 14, Bilaiaeacorenol N] | – | – | IC50 ([1]; Mus musculus): > 10 µM; CC50 [3]: > 100 µM
C=C(C)C1C(OC(C)=O)CC(C)C12CCC(CO)C(O)C2 (centres unmarked) [Compound 13, Bilaiaeacorenol M] | 0.53 ± 0.47 | > 100 | –
C=C(C)C1C(OC(C)=O)CC(C)C12CC(O)C(C)(O)C(O)C2 (centres unmarked) [Compound 15, Bilaiaeacorenol O] | – | > 100 | IC50 ([1]; Mus musculus): 3.7 ± 0.1 µM
